Source: patent publication US9624208B2, “Benzoxazolinone compounds with selective activity in voltage-gated sodium channels” (Merck Sharp & Dohme Corp., priority 2012, dated 2017)

Tests used:
human Nav1.7 = biological target: T1, human Nav1.7 (Homo sapiens, UniProt Q15858); test: PatchXpress sodium current measurement, inactivated state block, Nav1.7; type: cell-based; settings: channels stably expressed in HEK 293 cells, double-pulse protocol, 22° C., read-out: potency for the Nav 1.7 sodium ion channel (1.7=)
T1 construct: expressed in transfected cells
T1 sequence (Q15858 whole entry): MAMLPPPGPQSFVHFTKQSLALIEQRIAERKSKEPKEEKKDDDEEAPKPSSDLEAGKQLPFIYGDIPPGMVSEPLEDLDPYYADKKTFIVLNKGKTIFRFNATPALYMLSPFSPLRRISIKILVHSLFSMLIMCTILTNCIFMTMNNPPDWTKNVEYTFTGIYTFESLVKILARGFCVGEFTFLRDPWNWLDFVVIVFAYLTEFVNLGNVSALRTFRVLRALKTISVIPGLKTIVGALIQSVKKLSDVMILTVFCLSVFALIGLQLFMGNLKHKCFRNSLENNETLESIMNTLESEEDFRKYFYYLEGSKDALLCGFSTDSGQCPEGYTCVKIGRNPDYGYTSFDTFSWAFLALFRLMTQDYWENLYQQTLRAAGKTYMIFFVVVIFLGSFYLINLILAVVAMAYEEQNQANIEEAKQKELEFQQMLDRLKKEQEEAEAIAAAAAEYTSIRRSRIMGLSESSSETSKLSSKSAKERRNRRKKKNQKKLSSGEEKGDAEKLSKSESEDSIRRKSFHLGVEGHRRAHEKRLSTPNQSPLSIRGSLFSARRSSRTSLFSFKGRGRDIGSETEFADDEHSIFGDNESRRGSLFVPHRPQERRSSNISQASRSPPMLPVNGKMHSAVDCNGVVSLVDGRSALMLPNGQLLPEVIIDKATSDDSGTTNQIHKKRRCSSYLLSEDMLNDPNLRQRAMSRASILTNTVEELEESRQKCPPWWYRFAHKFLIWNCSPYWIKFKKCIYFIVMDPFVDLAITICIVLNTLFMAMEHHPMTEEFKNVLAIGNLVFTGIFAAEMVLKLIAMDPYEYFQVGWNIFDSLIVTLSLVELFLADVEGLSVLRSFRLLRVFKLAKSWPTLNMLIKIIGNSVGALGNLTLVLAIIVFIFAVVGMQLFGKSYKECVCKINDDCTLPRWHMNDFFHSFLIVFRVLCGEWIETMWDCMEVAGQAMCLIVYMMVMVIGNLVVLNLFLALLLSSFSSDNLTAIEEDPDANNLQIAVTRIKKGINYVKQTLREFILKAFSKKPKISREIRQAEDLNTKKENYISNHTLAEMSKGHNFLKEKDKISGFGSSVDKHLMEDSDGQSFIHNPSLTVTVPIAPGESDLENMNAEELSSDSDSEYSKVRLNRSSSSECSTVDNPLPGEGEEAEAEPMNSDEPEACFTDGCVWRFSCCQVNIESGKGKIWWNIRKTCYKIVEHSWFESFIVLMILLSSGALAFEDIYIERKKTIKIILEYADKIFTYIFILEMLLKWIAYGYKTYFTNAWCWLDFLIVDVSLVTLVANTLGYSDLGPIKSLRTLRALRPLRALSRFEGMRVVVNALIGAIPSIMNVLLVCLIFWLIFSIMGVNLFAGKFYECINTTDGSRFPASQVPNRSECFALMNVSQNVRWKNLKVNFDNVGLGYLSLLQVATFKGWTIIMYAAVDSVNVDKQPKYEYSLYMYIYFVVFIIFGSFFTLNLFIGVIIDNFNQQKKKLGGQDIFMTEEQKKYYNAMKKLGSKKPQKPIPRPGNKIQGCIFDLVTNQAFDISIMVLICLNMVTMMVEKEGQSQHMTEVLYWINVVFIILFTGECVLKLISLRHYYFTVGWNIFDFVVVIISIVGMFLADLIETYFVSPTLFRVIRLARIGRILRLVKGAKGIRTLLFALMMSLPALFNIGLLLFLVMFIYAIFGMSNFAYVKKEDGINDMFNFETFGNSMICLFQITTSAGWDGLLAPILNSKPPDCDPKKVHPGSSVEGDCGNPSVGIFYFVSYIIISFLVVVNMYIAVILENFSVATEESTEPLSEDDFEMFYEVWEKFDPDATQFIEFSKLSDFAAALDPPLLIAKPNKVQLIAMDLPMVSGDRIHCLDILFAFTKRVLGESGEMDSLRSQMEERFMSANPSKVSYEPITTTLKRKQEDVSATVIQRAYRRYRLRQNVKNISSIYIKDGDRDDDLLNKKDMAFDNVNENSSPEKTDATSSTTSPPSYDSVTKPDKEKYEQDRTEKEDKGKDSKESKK
Outline: (§1)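 HEK293 cells stably expressing channel; automated patch clamp at 22 °C, double-pulse protocol: hold 20 mV below V½ inactivation, 8000 ms prepulse 7 mV above V½, 2 ms step to −120 mV, 20 ms test pulse to −20 mV. CsF-based internal (pH 7.3), NMDG/40 mM NaCl external (pH 7.5). Rundown-corrected % inhibition (≥2 concentrations) fitted to Hill equation for IC50.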

human Nav1.5 = biological target: T2, human Nav1.5 (Homo sapiens, UniProt Q14524); test: PatchXpress sodium current measurement, inactivated state block, Nav1.5; type: cell-based; settings: determined by PatchXpress measurement, HEK 293 cells
T2 construct: expressed in transfected cells
T2 sequence (Q14524 whole entry): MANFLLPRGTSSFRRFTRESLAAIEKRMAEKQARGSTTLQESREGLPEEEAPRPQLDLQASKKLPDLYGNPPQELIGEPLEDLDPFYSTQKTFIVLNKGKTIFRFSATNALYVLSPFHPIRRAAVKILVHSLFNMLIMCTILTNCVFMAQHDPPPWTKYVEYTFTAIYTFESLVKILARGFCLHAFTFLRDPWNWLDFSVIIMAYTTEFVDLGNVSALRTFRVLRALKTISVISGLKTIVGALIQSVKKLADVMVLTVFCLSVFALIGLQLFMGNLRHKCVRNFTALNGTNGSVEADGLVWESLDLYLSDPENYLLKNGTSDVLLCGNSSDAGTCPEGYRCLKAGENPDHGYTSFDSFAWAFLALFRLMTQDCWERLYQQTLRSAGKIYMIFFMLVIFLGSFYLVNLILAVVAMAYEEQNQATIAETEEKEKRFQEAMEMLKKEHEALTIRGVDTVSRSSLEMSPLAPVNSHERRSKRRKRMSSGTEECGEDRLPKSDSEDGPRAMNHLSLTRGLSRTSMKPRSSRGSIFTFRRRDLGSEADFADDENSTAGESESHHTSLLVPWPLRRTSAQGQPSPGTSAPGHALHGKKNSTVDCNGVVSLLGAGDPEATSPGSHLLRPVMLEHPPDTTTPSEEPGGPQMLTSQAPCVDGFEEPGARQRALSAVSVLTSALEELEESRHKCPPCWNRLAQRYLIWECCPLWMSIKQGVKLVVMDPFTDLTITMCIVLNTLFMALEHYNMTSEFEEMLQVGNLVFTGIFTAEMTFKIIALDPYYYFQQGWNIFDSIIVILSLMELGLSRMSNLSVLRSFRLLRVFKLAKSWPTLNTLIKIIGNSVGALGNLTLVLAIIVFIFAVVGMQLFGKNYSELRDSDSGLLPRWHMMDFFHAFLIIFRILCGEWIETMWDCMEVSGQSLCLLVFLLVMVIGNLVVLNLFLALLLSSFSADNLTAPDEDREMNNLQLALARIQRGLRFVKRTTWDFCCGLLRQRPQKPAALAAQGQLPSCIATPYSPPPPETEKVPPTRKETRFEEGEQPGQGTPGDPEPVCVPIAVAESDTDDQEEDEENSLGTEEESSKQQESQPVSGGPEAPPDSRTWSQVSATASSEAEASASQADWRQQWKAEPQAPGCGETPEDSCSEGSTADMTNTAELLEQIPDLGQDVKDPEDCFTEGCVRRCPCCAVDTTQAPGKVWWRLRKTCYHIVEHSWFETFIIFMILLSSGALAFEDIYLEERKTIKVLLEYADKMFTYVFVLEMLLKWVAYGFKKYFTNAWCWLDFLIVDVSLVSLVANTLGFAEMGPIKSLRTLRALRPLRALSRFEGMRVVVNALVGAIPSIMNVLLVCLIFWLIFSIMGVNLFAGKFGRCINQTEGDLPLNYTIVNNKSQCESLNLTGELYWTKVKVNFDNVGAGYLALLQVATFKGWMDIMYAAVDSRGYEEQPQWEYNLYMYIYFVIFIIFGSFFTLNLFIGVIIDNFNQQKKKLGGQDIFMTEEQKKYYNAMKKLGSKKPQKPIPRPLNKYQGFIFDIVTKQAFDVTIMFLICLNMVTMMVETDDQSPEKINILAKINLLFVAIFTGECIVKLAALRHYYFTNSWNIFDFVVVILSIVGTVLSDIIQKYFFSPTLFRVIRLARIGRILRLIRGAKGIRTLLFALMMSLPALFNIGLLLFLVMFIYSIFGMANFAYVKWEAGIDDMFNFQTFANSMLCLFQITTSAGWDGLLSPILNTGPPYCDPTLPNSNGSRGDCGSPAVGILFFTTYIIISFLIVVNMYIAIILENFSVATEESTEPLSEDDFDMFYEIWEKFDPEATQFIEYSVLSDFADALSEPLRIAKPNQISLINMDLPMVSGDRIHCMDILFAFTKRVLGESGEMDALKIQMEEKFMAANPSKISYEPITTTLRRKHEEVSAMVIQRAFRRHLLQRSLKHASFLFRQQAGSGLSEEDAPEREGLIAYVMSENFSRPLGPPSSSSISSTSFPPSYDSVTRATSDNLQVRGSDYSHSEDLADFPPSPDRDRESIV
Outline: as §1

| IC50 (human Nav1.7) [nM] | Compound | ratio of Nav 1.5:Nav 1.7 potency (human Nav1.5) |
| --- | --- | --- |
| 226 | C[C@H](c1cccc(C#CC2(N)CCCCC2)c1)n1c(=O)oc2cc(S(=O)(=O)Nc3cccc(F)n3)c(F)cc21 [Ex21-4, 3-[(1R)-1-{3-[(1-aminocyclohexyl)-ethynyl]phenyl}ethyl]-5-fluoro-N-(6-fluoropyridin-2-yl)-2-oxo-2,3-dihydro-1,3-benzoxazole-6-sulfonamide] | 45 |
| 245 | CNCC#Cc1cccc([C@@H](C)n2c(=O)oc3cc(S(=O)(=O)Nc4cccc(F)n4)c(F)cc32)c1 [Ex21-2, 5-fluoro-N-(6-fluoropyridin-2-yl)-3-[(1R)-1-{3-[3-(methylamino)prop-1-yn-1-yl]phenyl}ethyl]-2-oxo-2,3-dihydro-1,3-benzoxazole-6-sulfonamide] | 122 |
| 482 | C[C@H](c1cccc(CN)c1)n1c(=O)oc2cc(S(=O)(=O)Nc3cccc(F)n3)c(F)cc21 [Ex19-5, 3-{(1R)-1-[3-(aminomethyl)phenyl]ethyl}-5-fluoro-N-(6-fluoropyridin-2-yl)-2-oxo-2,3-dihydro-1,3-benzoxazole-6-sulfonamide] | 96 |
| 9 | C[C@H](c1ccccc1C#CC(N)CO)n1c(=O)oc2cc(S(=O)(=O)Nc3cccc(F)n3)c(F)cc21 (stereo partly drawn) [Ex8-4, 3-{(1R)-1-[2-(3-amino-4-hydroxybut-1-yn-1-yl)phenyl]ethyl}-5-fluoro-N-(6-fluoropyridin-2-yl)-2-oxo-2,3-dihydro-1,3-benzoxazole-6-sulfonamide] | 822 |
| 24 | Cc1cc2c(cc1S(=O)(=O)Nc1cccc(F)n1)oc(=O)n2Cc1cccc2c1CC(N)CC2 (single isomer, unassigned) [Ex17-5, (R or S)-3-[(7-amino-5,6,7,8-tetrahydronaphthalen-1-yl)methyl]-N-(6-fluoropyridin-2-yl)-5-methyl-2-oxo-2,3-dihydro-1,3-benzoxazole-6-sulfonamide] | 310 |
| 98 | C[C@H](c1ccccc1C1CCCN1)n1c(=O)oc2cc(S(=O)(=O)Nc3cccc(F)n3)c(F)cc21 (stereo partly drawn) [Ex20-1, 5-fluoro-N-(6-fluoropyridin-2-yl)-2-oxo-3-{(1R)-1-[2-(pyrrolidin-2-yl)phenyl]ethyl}-2,3-dihydro-1,3-benzoxazole-6-sulfonamide] | 120 |
| 3 | C[C@H](c1ccccc1C1=CCNCC1)n1c(=O)oc2cc(S(=O)(=O)Nc3cccc(F)n3)c(F)cc21 [Ex7-5, (R)-5-Fluoro-N-(6-fluoropyridin-2-yl)-2-oxo-3-(1-(2-(1,2,3,6-tetrahydropyridin-4-yl)phenyl)ethyl)-2,3-dihydrobenzo[d]oxazole-6-sulfonamide] | 1398 |
| 16 | Cc1cc2c(cc1S(=O)(=O)Nc1cccc(F)n1)oc(=O)n2[C@H](C)c1cccc(C)c1C#C[C@H]1CCCC[C@H]1N [Ex21-26, 3-[(1R)-1-(2-{[(1R,2R)-2-aminocyclohexyl]-ethynyl}-3-methylphenyl)ethyl]-N-(6-fluoropyridin-2-yl)-5-methyl-2-oxo-2,3-dihydro-1,3-benzoxazole-6-sulfonamide] | 192 |
| 234 | C[C@H](c1cccc(C#CCN2CCN(C)CC2)c1)n1c(=O)oc2cc(S(=O)(=O)Nc3cccc(F)n3)c(F)cc21 [Ex21-14, 5-fluoro-N-(6-fluoropyridin-2-yl)-3-[(1R)-1-{3-[3-(4-methylpiperazin-1-yl)prop-1-yn-1-yl]phenyl}ethyl]-2-oxo-2,3-dihydro-1,3-benzoxazole-6-sulfonamide] | 134 |
| 69 | Cc1cc2c(cc1S(=O)(=O)Nc1cccc(F)n1)oc(=O)n2[C@H](C)c1cccc(Br)c1C [Ex18-7, 3-[(1R)-1-(3-bromo-2-methylphenyl)ethyl]-N-(6-fluoropyridin-2-yl)-5-methyl-2-oxo-2,3-dihydro-1,3-benzoxazole-6-sulfonamide] | 90 |
| 55 | C[C@H](c1cccc(CCCN)c1)n1c(=O)oc2cc(S(=O)(=O)Nc3cccc(F)n3)c(F)cc21 [Ex22-1, 3-{(1R)-1-[3-(3-aminopropyl)phenyl]ethyl}-5-fluoro-N-(6-fluoropyridin-2-yl)-2-oxo-2,3-dihydro-1,3-benzoxazole-6-sulfonamide] | 380 |
| 34 | Cc1cc2c(cc1S(=O)(=O)Nc1cccc(F)n1)oc(=O)n2[C@H](C)c1cccc2c1CNCC2 [Ex17-4, (R)—N-(6-Fluoropyridin-2-yl)-5-methyl-2-oxo-3-(1-(1,2,3,4-tetrahydroisoquinolin-8-yl)ethyl)-2,3-dihydrobenzo[d]oxazole-6-sulfonamide] | 200 |
| 25 | C[C@H](c1ccccc1C#C[C@H]1CCCC[C@@H]1N)n1c(=O)oc2cc(S(=O)(=O)Nc3cccc(F)n3)c(F)cc21 (mixture of isomers) [Ex8-5, 3-[(1R)-1-(2-{[(1R,2S and 1S, 2R)-2-aminocyclohexyl]ethynyl}phenyl)ethyl]-5-fluoro-N-(6-fluoropyridin-2-yl)-2-oxo-2,3-dihydro-1,3-benzoxazole-6-sulfonamide] | 714 |
| 150 | C[C@H](c1ccccc1N1CCNCC1)n1c(=O)oc2cc(S(=O)(=O)Nc3cccc(F)n3)c(F)cc21 [Ex23-1, 5-fluoro-N-(6-fluoropyridin-2-yl)-2-oxo-3-{(1R)-1-[2-(piperazin-1-yl)phenyl]ethyl}-2,3-dihydro-1,3-benzoxazole-6-sulfonamide] | 200 |
| 14 | Cc1cc2c(cc1S(=O)(=O)Nc1cccc(F)n1)oc(=O)n2[C@H](C)c1cccc(C)c1CN [Ex19-2, 3-{(1R)-1-[2-(aminomethyl)-3-methylphenyl]ethyl}-N-(6-fluoropyridin-2-yl)-5-methyl-2-oxo-2,3-dihydro-1,3-benzoxazole-6-sulfonamide] | 133 |
| 50 | C[C@H](c1ccccc1C#CCN)n1c(=O)oc2cc(S(=O)(=O)Nc3cccc(F)n3)c(F)cc21 [Ex8-1, (R)-3-(1-(2-(3-Aminoprop-1-yn-1-yl)phenyl)ethyl)-5-fluoro-N-(6-fluoropyridin-2-yl)-2-oxo-2,3-dihydrobenzo[d]oxazole-6-sulfonamide] | 546 |
| 103 | C[C@H](c1cccc(CCN)c1)n1c(=O)oc2cc(S(=O)(=O)Nc3cccc(F)n3)c(F)cc21 [Ex19-11, 3-{(1R)-1-[3-(2-aminoethyl)phenyl]ethyl}-5-fluoro-N-(6-fluoropyridin-2-yl)-2-oxo-2,3-dihydro-1,3-benzoxazole-6-sulfonamide] | 244 |
| 101 | Cc1c(CCCN)cccc1[C@@H](C)n1c(=O)oc2cc(S(=O)(=O)Nc3cccc(F)n3)c(F)cc21 [Ex22-3, 3-{(1R)-1-[3-(3-amino-propyl)-2-methylphenyl]ethyl}-5-fluoro-N-(6-fluoropyridin-2-yl)-2-oxo-2,3-dihydro-1,3-benzoxazole-6-sulfonamide] | 297 |
| 213 | C[C@H](c1ccccc1C1CN(S(C)(=O)=O)C1)n1c(=O)oc2cc(S(=O)(=O)Nc3cccc(F)n3)c(F)cc21 [Ex11-1] | 34 |
| 1140 | Cl.O=c1oc2cc(S(=O)(=O)Nc3cccc(F)n3)c(F)cc2n1Cc1cccc2c1CNCC2F (racemic) [Ex5-9, (+/−)-5-Fluoro-3-((4-fluoro-1,2,3,4-tetrahydroisoquinolin-8-yl)methyl)-N-(6-fluoropyridin-2-yl)-2-oxo-2,3-dihydrobenzo[d]oxazole-6-sulfonamide hydrochloride] | 26 |
| 434 | C[C@H](c1ccccc1C#CCN1CCCC1)n1c(=O)oc2cc(S(=O)(=O)Nc3cccc(F)n3)c(F)cc21 [Ex8-2, 5-fluoro-N-(6-fluoropyridin-2-yl)-2-oxo-3-{(1R)-1-[2-(3-pyrrolidin-1-ylprop-1-yn-1-yl)phenyl]ethyl}-2,3-dihydro-1,3-benzoxazole-6-sulfonamide] | 23 |
